Results from PubChem BioAssay (NCI).
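The compound was tested at five concentrations on cells cultured in 96-well plates, with a 48-hour exposure period. TGI: total growth inhibition.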 Where a SMILES comes first, the peptide text is derived from it. [ ]: non-standard residue; d: D form. The star is where a group is joined. NMeAc5c = CNC1(C(=O)O)CCCC1; Boc = CC(C)(C)OC(=O)*; OBn = c1ccc(CO*)cc1

What was measured:
Experiment in all cases: NCI anticancer screen, dose series, 48 h
SK-MEL-2 melanoma = system: SK-MEL-2 melanoma
HL-60(TB) leukemia = system: HL-60(TB) leukemia
U251 CNS = system: U251 CNS
ACHN renal = system: ACHN renal
A549 NSCLC = system: A549 NSCLC
SR leukemia = system: SR leukemia
MDA-N = system: MDA-N
NCI-H460 lung = system: NCI-H460 lung
OVCAR-5 ovarian = system: OVCAR-5 ovarian
COLO 205 colon = system: COLO 205 colon

Row | SMILES | TGI (SK-MEL-2 melanoma) [µM] | TGI (HL-60(TB) leukemia) [µM] | TGI (U251 CNS) [µM] | TGI (ACHN renal) [µM] | TGI (A549 NSCLC) [µM] | TGI (SR leukemia) [µM] | TGI (MDA-N) [µM] | TGI (NCI-H460 lung) [µM] | TGI (OVCAR-5 ovarian) [µM] | TGI (COLO 205 colon) [µM]
1 | COc1cc(Br)cc2cc(-c3cn4ccsc4n3)c(=O)oc12 | > 100 | > 100 | > 100 | > 100 | > 100 | > 100 | 42.2 | > 100 | > 100 | > 100
2 | ClCCN1CCC2(CC1)SSC1(CCN(CCCl)CC1)S2 | > 100 | 76.8 | > 100 | > 100 | > 100 | > 100 | > 100 | > 100 | 72 | 41.2
3 | COC(=O)c1cc(=O)nc2sc3cccc(C)c3n12 | 82.5 | 62.6 | > 100 | 42.8 | > 100 | > 100 | > 100 | > 100 | > 100 | 29.8
4 | O=c1c2cc([N+](=O)[O-])cnc2sn1-c1ccc([N+](=O)[O-])cc1 | 88.1 | 64.2 | > 100 | > 100 | > 100 | 54.6 | > 100 | > 100 | > 100 | 37.3
5 | NC(N)=N/N=C/c1c(-c2ccc(N)cc2)nc2sccn12 | 81.8 | 47.9 | 64.1 | 77.9 | 47.6 | 89.3 | 60.1 | 76.8 | 46.8 | 57.8
6 | O=c1[nH]c(Nc2cccc(CC(F)(F)F)c2)nc2nc[nH]c12 | > 100 | > 100 | > 100 | > 100 | > 100 | > 100 | > 100 | > 100 | > 100 | > 100
7 | CC1(C)OC(=O)N(c2ccccc2)C12C=Cc1cc([N+](=O)[O-])cc([N+](=O)[O-])c1O2 (stereo not drawn) | > 100 | > 100 | > 100 | > 100 | > 100 | > 100 | > 100 | > 100 | > 100 | > 100
8 | Cc1ccccc1C(=O)N1CCc2c([nH]c3ccccc23)C1 | 27 | 39.2 | 41.3 | > 100 | > 100 | 50 | 43.9 | 53.4 | 76.3 | 31.9
9 | COC(=O)c1ccccc1CC1Cc2ccc3c(c2C1=O)CCCC3 (stereo not drawn) | > 76.3 | > 100 | > 100 | > 100 | > 100 | 24.5 | > 100 | > 100 | > 100 | > 100
10 | COc1cc(C2c3cc4c(cc3OC(N3CCOCC3)C2C)OCO4)ccc1O (stereo not drawn) | 33.6 | 23.6 | > 100 | > 100 | > 100 | > 68.9 | 4.41 | 55.5 | > 100 | > 100
11 | O=C1CCCSC(=O)N1Cc1ccccc1 | > 100 | > 100 |  | > 100 | > 100 | > 100 | > 100 | > 100 | > 100 | > 100
12 | CCOC(=O)c1csc(NC(=O)CN2CCOCC2)n1 | > 100 | > 100 | > 100 | > 100 | > 100 | > 100 | > 100 | > 100 | > 100 | > 100
13 | Cc1ccc(C(=O)O)cc1S(=O)(=O)Nn1cnc2ccc(S(=O)(=O)Nc3ccccc3C(=O)O)cc2c1=O | > 100 | > 100 | > 100 | > 100 | > 100 | > 100 | > 100 | > 100 | > 100 | > 100
14 | CCCCCCc1cc2cc(-c3csc(CC#N)n3)c(=O)oc2cc1O | > 100 | > 66.9 | > 100 | > 100 | > 100 | > 100 | > 100 | > 100 | > 100 | > 100
15 | CCOC(=O)CSc1c(C(=O)OCC)c(=O)n(-c2ccccc2)c(=S)n1-c1ccccc1 | > 100 | 47.4 | > 100 | > 100 | > 100 | > 100 | > 100 | > 100 | > 100 | > 100
16 | CC1(C)N=[N+]([O-])C1(C)C | > 100 | > 100 | > 100 |  | > 100 | > 100 | > 100 | > 100 | > 100 | > 100
17 | CN(C)C(=O)O/N=C1/C(c2c(O)[nH]c3ccccc23)=Nc2ccccc21 | 33.4 | > 100 | 33.9 | > 100 | > 100 | 35.4 | > 100 | > 100 | > 100 | > 100
18 | CCCCCCCCCCCCCCNC(=O)CCC(NC(=O)c1ccc(N(C)Cc2cnc3nc(N)nc(N)c3n2)cc1)C(=O)NCCCCCCCCCCCCCC (stereo not drawn) | > 61.9 | 0.758 | 32.6 | 30.1 | > 36.3 | 21.8 | 21.9 | 13.1 | > 48.3 | > 62.9
19 | COC(=O)C([C@H](NC1(c2ccccc2)c2ccccc2-c2ccccc21)C(=O)OC)N(NC(=O)OCc1ccccc1)C(=O)OCc1ccccc1 (mixture of isomers) | > 100 | > 100 | > 100 | > 100 | > 100 | > 100 | > 100 | > 100 | > 100 | > 100
20 | N#Cc1c(N2CCCC2)ncn(-c2ccccc2)c1=O | > 100 | > 100 | > 100 | > 100 | > 100 | > 100 | > 100 | > 100 | > 100 | > 100
21 | COC(=O)C1SC(SC)=NC12c1ccccc1Nc1ccccc12 (stereo not drawn) | 47.3 | 87.9 | 66.6 | > 100 | > 100 | 53.4 | 70.6 | 56.1 | > 100 | 39.3
22 | NC(=O)NCCCC(NC(=O)OCCCCn1ccc(=O)[nH]c1=O)C(=O)O (stereo not drawn) | > 100 | > 100 | > 100 | > 100 | > 100 | > 100 | > 100 | > 100 | > 100 | > 100
23 | COc1ccc2cc(NC(=O)N/N=C\c3ccc([N+](=O)[O-])cc3)ccc2c1 | > 100 | > 100 | > 100 | > 100 | > 100 | > 100 | > 100 | > 100 | > 100 | > 100
24 | CN(C(=O)C(Cc1ccccc1)NC(=O)OC(C)(C)C)C1(C(=O)NC(Cc2ccccc2)C(=O)OCc2ccccc2)CCCC1 (stereo not drawn) (Boc-Phe-[NMeAc5c]-Phe-OBn; configuration not given here) | > 100 | 47.5 | 51.1 | > 100 | > 100 | 69.1 | 65.4 | 59.8 | > 100 | 52.3
25 | C=CCN1C[C@H](C)N([C@H](c2ccc(C(=O)NC(CC)CC)cc2)c2cccc(OC)c2)C[C@H]1C | 46.1 | 32.4 | > 100 | > 100 | > 100 | 44.4 | > 100 | > 100 | > 100 | 32.5
26 | CC(C)(C)N1CSC(=S)N(Cc2ccco2)C1 | 14.6 | 4.03 | 14.4 | 13.7 | 24.4 | 3.55 | 16.5 | 22.5 | 11.7 | 14.7
27 | COc1ccc(N/N=C2\CCOc3ccc(C)cc3C2=O)cc1 | 46 | > 100 | 66 | > 100 | > 100 | > 100 | 22.3 | 53.7 | > 100 | > 100
28 | CN1CCc2cc(N)cc3c2C1Cc1ccc(O)c(O)c1-3 (stereo not drawn) | > 100 | 98.7 | > 100 | 58.4 | > 100 | > 100 | > 100 | > 100 | > 100 | > 100
29 | Cc1nc2n(c1/C=C1/C(=O)Nc3cccc(Cl)c31)CCS2 | 51.8 | > 100 | 34.7 | > 100 | > 100 | > 100 | > 100 | > 100 | > 100 | > 100
30 | CC(C)(C)OC(=O)NCCCCC1NC(=O)[C@@H]2Cc3c([nH]c4ccccc34)C(C3CCCCC3)N2C1=O (stereo partly drawn) | > 100 | > 100 | > 100 | > 100 | > 100 | 36.8 | > 100 | > 100 | > 100 | 55.1
